Structures can show the parent of a compound that is named as a salt.
Tests used:
[1] = Acute oral toxicity (LD50); conditions: mouse, in vivo, Maus, p.o., read-out: LD₅₀
Source text: Die Verbindungen der obigen allgemeinen Formel I und deren physiologisch verträgliche Säureadditionssalze sind untoxisch und somit gut verträglich. So weist beispielsweise an der Maus • N-Methyl-N-(2-amino-3,5-dibrom-benzyl)-cyclohexylaminhydrochlorid eine LD₅₀ von >10 g/kg p.o., • N-(2-Amino-3,5-dibrom-benzyl)-trans-4-hydroxy-cyclohexylaminhydrochlorid eine von 2,72 g/kg p.o. und • die übrigen Verbindungen eine von >1 g/kg p.o. auf.

[2] = system: Klebsiella pneumoniae Weingarten 14 (Adhäsion an menschlichen Lungen-Epithelzellen ATCC, CCL5, L-132); experiment: Direct effect in vitro: adhesion of 14C-labelled bacteria to an epithelial cell monolayer; type: cell-based; conditions: L132, 3 h, pH 5, read-out: weniger Keime auf den Epithelzellen im Vergleich zur Kontrolle
Source text: • a. Der Titer der lebenden Zellen, z.B. von menschlichen Lungen-Epithelzellen wie ATCC, CCL5, L-132, - zu denen nachgewiesenerweise die Verbindungen der obigen allgemeinen Formel I eine sehr hohe Affinität aufweisen, die mit der zum intakten Organ vergleichbar ist - wird mittels Vitalfärbung mit Trypan blue und Auszählung in einer Fuchs-Rosenthal-Zählkammer bestimmt und durch Verdünnung mit Kulturmedium, z.B. Minimum Essential Medium plus 10 % fötales Kälberserum plus 0,1 % Kanamycin, auf 7 x 10⁴ Zellen/ml eingestellt. Je 3 ml dieser Suspension werden in Glasszintillationsfläschchen gefüllt, die durch eine übliche Behandlung für die Anheftung der Epithelzellen auf die Glasoberfläche vorbereitet wurden. Die Inkubation bis zur Ausbildung eines geschlossenen Monolayers erfolgt über 3 Tage bei 37°C und 3 % CO₂. Ein Monolayer entspricht 5 x 10⁶ Zellen pro Szintillationsfläschchen. • b. Die Bakterien, z.B. Klebsiella pneumoniae Weingarten 14, werden in zwei Passagen von je 24 Stunden bei 37° C in Brain Heart Infusion Broth (BHJ) bis zur logarithmischen Wachstumsphase gezüchtet. Während der 2. Passage erfolgt die radioaktive Markierung durch die Zugabe von 1,2-¹⁴C-Azetat zum Nährmedium. Danach wird die Kultur zur Entfernung nichtinkorporierter Radioaktivität zweimal mit PBS (Phosphate buffered saline) gewaschen. […]

[3] = system: Klebsiella pneumoniae Weingarten 14; experiment: In vivo lung infection: bacterial count in lung homogenate; conditions: relative to Tylose control = 100; treated 8-10 h before, 15 min before and 4-5 h after infection, preferably i.m. 20-40 mg/kg; lungs preferably 10 h after infection
Experimental: • a. Die Kultur der Bakterien erfolgt wie oben beschrieben, allerdings ohne radioaktive Markierung. • b. Weibliche Albino-Wistar Ratten oder weibliche SPF-Mäuse (Chbb:NMRI) werden i.p., i.v., i.m., p.o., vorzugsweise i.m. 8-10 Stunden vor, 15 Minuten vor und 4-5 Stunden nach der Infektion mit 2-200 mg, vorzugsweise 20-40 mg Benzylamin pro kg Körpergewicht bzw. Tylose (Kontrolle) behandelt. Die Bakteriensuspension (5 x 10⁸-10⁻⁹Bakterien/ml physiologischer Kochsalzlösung) wird in einer Vernebelungskammer mit 0,35 ml/ Minute über 10 Minuten vernebelt. Alternativ werden 10⁶ Keime in 0,05 ml physiologischer Kochsalzlösung i.n. in den Nasengang unter einer Inhalationsnarkose, z.B. mit Chloroform, appliziert. Jeweils ein Kollektiv von Tieren wird 1-10, vorzugsweise 10 Stunden nach der Infektion seziert, die Lungen steril entnommen und die Keime im Lungenhomogenat quantitativ durch Anzüchtung auf McConkey-Agar ermittelt. Die Bakterienkonzentration wird in Keimzahl/g Lunge bestimmt.

[4] = system: Klebsiella pneumoniae Weingarten 14 (Adhäsion an menschlichen Lungen-Epithelzellen ATCC, CCL5, L-132); experiment: Indirect effect ex vivo: bacterial adhesion to epithelial cells after incubation with lung lavage fractions from treated rats; type: cell-based; conditions: rats 25 mg/kg p.o. over 5 days, vs Tylose control animals
Source text: • a. Der Titer der lebenden Zellen, z.B. von menschlichen Lungen-Epithelzellen wie ATCC, CCL5, L-132, - zu denen nachgewiesenerweise die Verbindungen der obigen allgemeinen Formel I eine sehr hohe Affinität aufweisen, die mit der zum intakten Organ vergleichbar ist - wird mittels Vitalfärbung mit Trypan blue und Auszählung in einer Fuchs-Rosenthal-Zählkammer bestimmt und durch Verdünnung mit Kulturmedium, z.B. Minimum Essential Medium plus 10 % fötales Kälberserum plus 0,1 % Kanamycin, auf 7 x 10⁴ Zellen/ml eingestellt. Je 3 ml dieser Suspension werden in Glasszintillationsfläschchen gefüllt, die durch eine übliche Behandlung für die Anheftung der Epithelzellen auf die Glasoberfläche vorbereitet wurden. Die Inkubation bis zur Ausbildung eines geschlossenen Monolayers erfolgt über 3 Tage bei 37°C und 3 % CO₂. Ein Monolayer entspricht 5 x 10⁶ Zellen pro Szintillationsfläschchen. • b. Die Bakterien, z.B. Klebsiella pneumoniae Weingarten 14, werden in zwei Passagen von je 24 Stunden bei 37° C in Brain Heart Infusion Broth (BHJ) bis zur logarithmischen Wachstumsphase gezüchtet. Während der 2. Passage erfolgt die radioaktive Markierung durch die Zugabe von 1,2-¹⁴C-Azetat zum Nährmedium. Danach wird die Kultur zur Entfernung nichtinkorporierter Radioaktivität zweimal mit PBS (Phosphate buffered saline) gewaschen. Mit PBS pH 5,5 wird die Kultur im Photometer auf eine Transmission von 35 % eingestellt, was durch Ermittlung der Lebendkeimzahl einem Titer von 5 x 10⁸ Bakterien/ml entspricht. • c. Die Bakterien-Kultur wird abzentrifugiert, PBS abgenommen und durch ein gleiches Volumen Benzylamin-Lösung in PBS pH 5,5 ersetzt. Für den Kontrollwert wird statt der Benzylamin-Lösung PBS pH 5,5 verwendet. Das Nährmedium der Zellen wird abgenommen, der Monolayer (= 5 x 10⁶ Zellen) wird zweimal mit PBS pH 5,5 gespült und mit 1 ml Bakterien-Benzylamin-Lösung (= 5 x 10⁸ Bakterien) überschichtet. Die Inkubation erfolgt 3 Stunden bei 37° C. Danach wird die Bakterien-Benzylamin-Lösung abgenommen und der Monolayer zur Entfernung nicht-adhärenter Bakterien zweimal mit PBS pH 5,5 gespült. Nach Zugabe von Instagel wird die Radioaktivität der gebundenen Bakterien im Szintillationszähler gemessen. • d. Ergebnis: Mit der Verbindung A (50 |g/ml) wurden im Vergleich zur Kontrolle 15 % weniger Keime auf den Epithelzellen nachgewiesen, mit der Verbindung B (50 |g/ml) 20 %.
• a. Die Kultur der Epithelzellen erfolgt wie oben beschrieben. • b. Die Kultur der Bakterien erfolgt wie oben beschrieben. • c. Männliche SPF-Ratten (Chbb:THOM) werden über 5 Tage p.o. mit 25 mg Benzylamin pro kg Körpergewicht bzw. mit Tylose (Kontrolle) behandelt. Durch Bronchoalveolar-Lavage mit isotoner Harnstofflösung wird das Lungenwaschwasser gewonnen und gepoolt. 100 ml davon werden mittels präparativer Isoelektrofokussierung in 30 proteinhaltige Gelfraktionen aufgetrennt. Nach Bestimmung des isoelektrischen Punktes der einzelnen Fraktionen mit einer Oberflächen-Elektrode werden die Proteine mit 3 ml PBS pH 5,5 pro Fraktion vom Gel eluiert. Die 30 Fraktionen werden auf pH 5,5 eingestellt. • d. Die Bakterienkultur wird abzentrifugiert, PBS abgenommen und durch ein gleiches Volumen Lungenwaschwasserfraktion ersetzt. Für den Kontrollwert wird statt der Lungenwaschwasserfraktionen PBS pH 5,5 und isotone Harnstofflösung verwendet. Nach einer Inkubation von 2 Stunden bei 37° C wird die Bakterienkultur erneut abzentrifugiert, Lungenwaschwasserfraktionen bzw. PBS bzw. Harnstoff abgenommen und durch ein gleiches Volumen PBS pH 5,5 ersetzt. Das Nährmedium der Zellen wird abgenommen, der Monolayer (= 5 x 10⁶ Zellen) wird zweimal mit PBS pH 5,5 gespült und mit 1 ml Bakteriensuspension (= 5 x 10⁸ Bakterien) überschichtet. Die Inkubation erfolgt 2 Stunden bei 37° C Danach wird die Bakteriensuspension abgenommen und der Monolayer zur Entfernung nicht-adhärenter Bakterien zweimal mit PBS pH 5,5 gespült. Nach Zugabe von Instagel wird die Radioaktivität der gebundenen Bakterien im Szintillationszähler gemessen. • e. […]

Row | SMILES | LD50 [1] [mg/kg] | inhibition at 50 µg/mL [2] [%] | % Keimzahl/g Lunge [3] [%] | % Hemmung der Adhäsivität ([4]; Isoelektrischer Punkt der Lungenwaschwasserfraktion 4,0) [%] | % Hemmung der Adhäsivität ([4]; Isoelektrischer Punkt der Lungenwaschwasserfraktion 4,4) [%] | % Hemmung der Adhäsivität ([4]; Isoelektrischer Punkt der Lungenwaschwasserfraktion 4,9) [%] | % Hemmung der Adhäsivität ([4]; Isoelektrischer Punkt der Lungenwaschwasserfraktion 5,2) [%] | % Hemmung der Adhäsivität ([4]; Isoelektrischer Punkt der Lungenwaschwasserfraktion 5,8) [%] | % Hemmung der Adhäsivität ([4]; Isoelektrischer Punkt der Lungenwaschwasserfraktion 6,7) [%] | % Hemmung der Adhäsivität ([4]; Isoelektrischer Punkt der Lungenwaschwasserfraktion 7,6) [%] | % Hemmung der Adhäsivität ([4]; Isoelektrischer Punkt der Lungenwaschwasserfraktion 8,6) [%]
1 | CN(Cc1cc(Br)cc(Br)c1N)C1CCCCC1 [Verbindung A, N-Methyl-N-(2-amino-3,5-dibrom-benzyl)-cyclohexylaminhydrochlorid] | > 10000 | 15 | 49 |  |  |  |  |  |  |  | 
2 | Nc1c(Br)cc(Br)cc1CN[C@H]1CC[C@H](O)CC1 [Verbindung B, N-(2-Amino-3,5-dibrom-benzyl)-trans-4-hydroxy-cyclohexylamin-hydrochlorid] | 2720 | 20 | 31 | 73 | 65 | 65 | 61 | 39 | 67 | 79 | 72

From patent publication EP0138020B1, “Anti-adhesive prophylactica and medicines containing a secretolytically active benzylamine derivative” (priority 1983, dated 1985)
